pEC50: −log10 of the molar value.
target: AMPK; assay: AMPK activation, enzyme-linked immunosorbent assay; type: biochemical; details: Table 14, compounds of Table 7
Summary of the method: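 AMPK activation by test compounds was measured by enzyme-linked immunosorbent assay.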

pEC50	Compound
5.00 to 6.00	CCNS(=O)(=O)c1ccc(CN2CCN(C(=O)c3ccc(C(=O)Nc4ccc(Oc5ccc(C(C)=O)cc5)nc4)cn3)CC2)cc1 [Compound 7-92, N-(6-(4-acetylphenoxy)pyridin-3-yl)-6-(4-(4-(N-ethylsulfamoyl)benzyl)piperazine-1-carbonyl) nicotinamide]
> 6.00	COc1ccc(C(=O)C2CCN(C(=O)c3ccc(C(=O)NC4CCN(Cc5ccc(C#N)cc5)C[C@@H]4C)cn3)CC2)cc1 (stereo partly drawn) [Compound 7-93, N-((3,4-cis)-1-(4-cyanobenzyl)-3-methylpiperidin-4-yl)-6-(4-(4-methoxybenzoyl)piperidine-1-carbonyl)nicotinamide]
> 6.00	COc1ccc(C(=O)C2CCN(C(=O)c3ccc(C(=O)NC4CCN(Cc5ccc(OC(F)(F)F)cc5)C[C@@H]4C)cn3)CC2)cc1 (stereo partly drawn) [Compound 7-94, 6-(4-(4-methoxybenzoyl)piperidine-1-carbonyl)-N-((3,4-cis)-3-methyl-1-(4-(trifluoromethoxy)benzyl)piperidin-4-yl)nicotinamide]
> 6.00	COc1ccc(C(=O)C2CCN(C(=O)c3ccc(C(=O)NC4CCN(Cc5ccc(OC)c(F)c5)CC4(C)C)cn3)CC2)cc1 (stereo not shown) [Compound 7-95, N-(1-(3-fluoro-4-methoxybenzyl)-3,3-dimethylpiperidin-4-yl)-6-(4-(4-methoxybenzoyl)piperidine-1-carbonyl)nicotinamide]
> 6.00	COc1ccc(C(=O)C2CCN(C(=O)c3ccc(C(=O)NC4CCN(Cc5ccc(OC)c(F)c5)C[C@@H]4C)cn3)CC2)cc1 (stereo partly drawn) [Compound 7-96, N-((3,4-cis)-1-(3-fluoro-4-methoxybenzyl)-3-methylpiperidin-4-yl)-6-(4-(4-methoxybenzoyl)piperidine-1-carbonyl)nicotinamide]
> 6.00	COc1ccc(C(=O)C2CCN(C(=O)c3ccc(C(=O)NC4CCN(Cc5ccc(F)c(OC)c5)C[C@@H]4C)cn3)CC2)cc1 (stereo partly drawn) [Compound 7-97, N-((3,4-cis)-1-(4-fluoro-3-methoxybenzyl)-3-methylpiperidin-4-yl)-6-(4-(4-methoxybenzoyl)piperidine-1-carbonyl)nicotinamide]
> 6.00	COc1ccc(C(=O)C2CCN(C(=O)c3ccc(C(=O)NC4CCN(Cc5ccc(C#N)c(F)c5)C[C@@H]4C)cn3)CC2)cc1 (stereo partly drawn) [Compound 7-98, N-((3,4-cis)-1-(4-cyano-3-fluorobenzyl)-3-methylpiperidin-4-yl)-6-(4-(4-methoxybenzoyl)piperidine-1-carbonyl)nicotinamide]
> 6.00	COc1ccc(C(=O)C2CCN(C(=O)c3ccc(C(=O)NC4CCN(Cc5ccc(C#N)c(OC)c5)C[C@@H]4C)cn3)CC2)cc1 (stereo partly drawn) [Compound 7-99, N-((3,4-cis)-1-(4-cyano-3-methoxybenzyl)-3-methylpiperidin-4-yl)-6-(4-(4-methoxybenzoyl)piperidine-1-carbonyl)nicotinamide]
> 6.00	COc1ccc(C(=O)C2CCN(C(=O)c3ccc(C(=O)NC4CCN(Cc5ccc(OC)c(C#N)c5)C[C@@H]4C)cn3)CC2)cc1 (stereo partly drawn) [Compound 7-100, N-((3,4-cis)-1-(3-cyano-4-methoxybenzyl)-3-methylpiperidin-4-yl)-6-(4-(4-methoxybenzoyl)piperidine-1-carbonyl)nicotinamide]
> 6.00	COc1ccc(C(=O)C2CCN(C(=O)c3ccc(C(=O)NC4CCN(Cc5ccc(C#N)cc5)C[C@@H]4C(F)(F)F)cn3)CC2)cc1 (stereo partly drawn) [Compound 7-101, N-((3,4-cis)-1-(4-cyanobenzyl)-3-(trifluoromethyl)piperidin-4-yl)-6-(4-(4-methoxybenzoyl)piperidine-1-carbonyl)nicotinamide]
> 6.00	COc1ccc(CN2CCC(NC(=O)c3ccc(C(=O)N4CCC(C(=O)c5ccc(OC)cc5)CC4)nc3)[C@@H](C(F)(F)F)C2)cc1 (stereo partly drawn) [Compound 7-102, 6-(4-(4-methoxybenzoyl)piperidine-1-carbonyl)-N-((3,4-cis)-1-(4-methoxybenzyl)-3 - (trifluoromethyl)piperidin-4-yl)nicotinamide]
> 6.00	COc1ccc(C(=O)C2CCN(C(=O)c3cc(C)c(C(=O)NC4CCN(Cc5ccc(C#N)cc5)CC4)cn3)CC2)cc1 [Compound 7-105, N-(1-(4-cyanobenzyl)piperidin-4-yl)-6-(4-(4-methoxybenzoyl)piperidine-1-carbonyl)-4-methylnicotinamide]
> 6.00	O=C(NC1CCN(Cc2ccc(OC(F)(F)F)cc2)CC1)c1ccc(C(=O)N2CCC(Oc3cccc(NC(=O)C4CC4)c3)CC2)nc1 [Compound 7-108, 6-(4-(3-(cyclopropanecarboxamido)phenoxy)piperidine-1-carbonyl)-N-(1-(4-(trifluoromethoxy)benzyl)piperidin-4-yl)nicotinamide]
> 6.00	COc1ccc(CN2CCC(NC(=O)c3ccc(C(=O)N4CCC(C(=O)c5ccc(N6CCCC6)cc5)CC4)nc3)CC2)cc1 [Compound 7-109, N-(1-(4-methoxybenzyl)piperidin-4-yl)-6-(4-(4-(pyrrolidin-1-yl)benzoyl)piperidine-1-carbonyl)nicotinamide]
> 6.00	O=C(NC1CCN(Cc2ccc(OC(F)(F)F)cc2)CC1)c1ccc(C(=O)N2CCC(C(=O)c3ccc(N4CCCC4)cc3)CC2)nc1 [Compound 7-110, 6-(4-(4-(pyrrolidin-1-yl)benzoyl)piperidine-1-carbonyl)-N-(1-(4-(trifluoromethoxy)benzyl)piperidin-4-yl)nicotinamide]
> 6.00	O=C(NC1CCN(Cc2cccc(OC(F)(F)F)c2)CC1)c1ccc(C(=O)N2CCC(C(=O)c3ccc(N4CCCC4)cc3)CC2)nc1 [Compound 7-111, 6-(4-(4-(pyrrolidin-1-yl)benzoyl)piperidine-1-carbonyl)-N-(1-(3-(trifluoromethoxy)benzyl)piperidin-4-yl)nicotinamide]
> 6.00	N#Cc1ccc(O[C@H]2CC[C@@H](NC(=O)c3ccc(C(=O)N4CCC(C(=O)c5ccc(N6CCCC6)cc5)CC4)nc3)CC2)cc1 [Compound 7-112, N-((cis)-4-(4-cyanophenoxy)cyclohexyl)-6-(4-(4-(pyrrolidin-1-yl)benzoyl)piperidine-1-carbonyl)nicotinamide]
> 6.00	COc1ccc(CN2CCC(NC(=O)c3ccc(C(=O)N4CCC(C(=O)c5ccc(N6CCCC6)cc5)CC4)nc3)CC2)cc1F [Compound 7-113, N-(1-(3-fluoro-4-methoxybenzyl)piperidin-4-yl)-6-(4-(4-(pyrrolidin-1-yl)benzoyl)piperidine-1-carbonyl)nicotinamide]
> 6.00	O=C(NC1CCN(Cc2ccc(N3CCCC3)cc2)CC1)c1ccc(C(=O)N2CCC(C(=O)c3ccc(N4CCCC4)cc3)CC2)nc1 [Compound 7-114, 6-(4-(4-(pyrrolidin-1-yl)benzoyl)piperidine-1-carbonyl)-N-(1-(4-(pyrrolidin-1-yl)benzyl)piperidin-4-yl)nicotinamide]
4.00 to 4.30	COc1ccc(C(=O)C2CCN(C(=O)c3ccc(C(=O)NC4CCNCC4)cn3)CC2)cc1 [Compound 7-115, 6-(4-(4-methoxybenzoyl)piperidine-1-carbonyl)-N-(piperidin-4-yl)nicotinamide]
> 6.00	CC(C)Oc1ccc(CN2CCC(NC(=O)c3ccc(C(=O)N4CCC(C(=O)c5ccc(N6CCCC6)cc5)CC4)nc3)CC2)cc1 [Compound 7-116, N-(1-(4-isopropoxybenzyl)piperidin-4-yl)-6-(4-(4-(pyrrolidin-1-yl)benzoyl)piperidine-1-carbonyl)nicotinamide]
> 6.00	N#Cc1ccc(CN2CCC(NC(=O)c3ccc(C(=O)N4CCC(C(=O)c5ccc(N6CCCC6)cc5)CC4)nc3)CC2)cc1F [Compound 7-117, N-(1-(4-cyano-3-fluorobenzyl)piperidin-4-yl)-6-(4-(4-(pyrrolidin-1-yl)benzoyl)piperidine-1-carbonyl)nicotinamide]
> 6.00	N#Cc1ccc(CN2CCC(NC(=O)c3ccc(C(=O)N4CCC(Oc5ccc(S(=O)(=O)C(F)(F)F)cc5)CC4)nc3)CC2)cc1 [Compound 7-118, N-(1-(4-cyanobenzyl)piperidin-4-yl)-6-(4-(4-(trifluoromethylsulfonyl)phenoxy)piperidine-1-carbonyl)nicotinamide]
> 6.00	COc1ccc(CN2CCC(NC(=O)c3ccc(C(=O)N4CCC(Oc5ccc(C(=O)C6CC6)cc5)CC4)nc3)CC2)cc1 [Compound 7-120, 6-(4-(4-(cyclopropanecarbonyl)phenoxy)piperidine-1-carbonyl)-N-(1-(4-methoxybenzyl)piperidin-4-yl)nicotinamide]
> 6.00	CS(=O)(=O)c1ccc(OC2CCN(C(=O)c3ccc(C(=O)Nc4ccc(Oc5ccc(C#N)cc5)nc4)cn3)CC2)cc1 [Compound 7-121, N-(6-(4-cyanophenoxy)pyridin-3-yl)-6-(4-(4-(methylsulfonyl)phenoxy)piperidine-1-carbonyl) nicotinamide]

Reference: patent US9409884B2 (Rigel Pharmaceuticals, Inc., priority 2012, dated 2016)
